Source: the OPERA property sets (Mansouri et al. 2018)

| SMILES | logP |
| --- | --- |
| COc1c(OC)c(OC(C)=O)c2cc(C#N)ccc2c1OC(C)=O | 2.28 |
| COc1c(OC)c(OC(C)=O)c2ccccc2c1OC(C)=O | 2.39 |
| COc1c(OC)c(OC(C)=O)c2cc(F)ccc2c1OC(C)=O | 2.75 |
| COc1c(OC)c(OC(C)=O)c2cc(C)ccc2c1OC(C)=O | 2.86 |
| COc1c(OC)c(OC(C)=O)c2c(Cl)cccc2c1OC(C)=O | 3.16 |
| COc1c(OC)c(OC(C)=O)c2c(OC)cccc2c1OC(C)=O | 2.43 |
| COc1c(OC)c(OC(C)=O)c2cc(Cl)ccc2c1OC(C)=O | 3.26 |
| COc1c(OC)c(OC(C)=O)c2cc(Br)ccc2c1OC(C)=O | 3.39 |
| COc1c(OC)c(OC(=O)C(C)C)c2ccccc2c1OC(=O)C(C)C | 4.61 |
| COc1c(OC)c(OC(=O)C(C)(C)C)c2ccccc2c1OC(=O)C(C)(C)C | 5.69 |
| COc1c(OC)c(OC(C)=O)c2c(C#N)cccc2c1OC(C)=O | 2.51 |
| COc1ccc2c(OC(C)=O)c(OC)c(OC)c(OC(C)=O)c2c1 | 2.39 |
